#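 A five-concentration, 48-hour dose response in 96-well plates underlies each endpoint, interpolated linearly between surrounding concentrations. TGI: total growth inhibition.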
# Columns and labels:
# Experiment in all cases: inhibition of tumour cell growth, NCI panel, 48 h
# DMS 114 small cell lung = system: DMS 114 small cell lung
# EKVX NSCLC = system: EKVX NSCLC
# HOP-92 NSCLC = system: HOP-92 NSCLC
# IGROV1 ovarian = system: IGROV1 ovarian
# M19-MEL melanoma = system: M19-MEL melanoma
# NCI-H226 lung = system: NCI-H226 lung
# NCI-H522 lung = system: NCI-H522 lung
# OVCAR-8 ovarian = system: OVCAR-8 ovarian
# SF-268 CNS = system: SF-268 CNS
# SK-MEL-5 melanoma = system: SK-MEL-5 melanoma
# SNB-19 CNS = system: SNB-19 CNS
# SNB-78 CNS = system: SNB-78 CNS
# SR leukemia = system: SR leukemia
# XF 498 CNS = system: XF 498 CNS
# COLO 205 colon = system: COLO 205 colon
# DU-145 prostate = system: DU-145 prostate
# MCF7 breast = system: MCF7 breast
# MDA-MB-435 = system: MDA-MB-435
# MDA-N = system: MDA-N
# SK-MEL-28 melanoma = system: SK-MEL-28 melanoma
SMILES,TGI (DMS 114 small cell lung),TGI (EKVX NSCLC),TGI (HOP-92 NSCLC),TGI (IGROV1 ovarian),TGI (M19-MEL melanoma),TGI (NCI-H226 lung),TGI (NCI-H522 lung),TGI (OVCAR-8 ovarian),TGI (SF-268 CNS),TGI (SK-MEL-5 melanoma),TGI (SNB-19 CNS),TGI (SNB-78 CNS),TGI (SR leukemia),TGI (XF 498 CNS),TGI (COLO 205 colon),TGI (DU-145 prostate),TGI (MCF7 breast),TGI (MDA-MB-435),TGI (MDA-N),TGI (SK-MEL-28 melanoma)
Cc1c(N(Cc2ccccc2)Cc2ccccc2)nc(S(C)(=O)=O)nc1S(C)(=O)=O,3.24 µM,3.01 µM,8.4 µM,3.21 µM,2.89 µM,25.8 µM,3.14 µM,3.29 µM,3.74 µM,25.3 µM,26.1 µM,4.81 µM,4.18 µM,3.16 µM,–,–,–,–,–,–
Nc1nc2c(c(-c3ccc(F)cc3)n1)COC/C2=C\c1ccc(F)cc1,–,> 100 µM,> 100 µM,> 100 µM,–,> 100 µM,22.7 µM,> 100 µM,> 100 µM,> 100 µM,> 100 µM,–,43.2 µM,–,> 100 µM,> 100 µM,> 100 µM,> 100 µM,> 100 µM,> 100 µM
COc1cc(O)c2c(=O)c(O)c(-c3ccc(O)c(O)c3)oc2c1,–,> 100 µM,45.1 µM,> 100 µM,–,–,25.5 µM,75.9 µM,73.7 µM,58.6 µM,> 100 µM,–,> 100 µM,–,32.5 µM,25.5 µM,60.7 µM,85.5 µM,> 100 µM,> 100 µM
Cn1c(=O)c(C#N)c(O)c2cc3ccccc3nc21,> 100 µM,> 100 µM,> 100 µM,> 100 µM,> 100 µM,> 100 µM,–,> 100 µM,> 100 µM,> 100 µM,> 100 µM,> 100 µM,> 100 µM,> 100 µM,> 100 µM,–,–,–,–,> 100 µM
Nc1cc(O)c2cc(N=Nc3ccc(N=Nc4ccc(N=Nc5ccc6cc(S(=O)(=O)O)cc(S(=O)(=O)O)c6c5)c5ccccc45)c4cc(S(=O)(=O)O)ccc34)c(S(=O)(=O)O)cc2c1,–,> 100 µM,> 93.3 µM,> 100 µM,> 100 µM,> 93.3 µM,> 100 µM,> 100 µM,> 100 µM,> 100 µM,> 100 µM,> 100 µM,–,> 100 µM,> 100 µM,–,> 100 µM,–,–,> 100 µM
